What was measured:
IKK-beta = IKK-beta (Homo sapiens, UniProt O14920); experiment: Kinase panel: IKK-beta; format: biochemical; conditions: 10 μM EP009
Description: (§1) Achieving JAK3 selectivity remains a significant challenge in the development of new small molecules for the treatment of cancer and immune-derived diseases. As such, the inventors employed cell-based screening assays of small-molecule libraries based upon the chemical scaffold of the established JAK3 inhibitor NC1153 (Stepkowski et al., J Immunol. (2005), 175(7):4236-4246) EP009 (FIG. 2A) was selected as a lead compound due to improved intrinsic stability (>95% purity in various solvents at 37° C. for 24 hours; FIG. 3) and high-degree of JAK3 selectivity. To test JAK3 versus JAK2 specificity of EP009, the IL-2/JAK3-dependent Kit225, and IL-3/JAK2-dependent BaF/3 cell lines were used. Kit225 and BaF/3 cells growing in the presence of IL-2 or IL-3, respectively, were treated with ascending concentrations of EP009 for 12 hours and cellular JAK3 and JAK2 tyrosine phosphorylation levels detected by Western blot analysis (FIGS. 2B and 2C). Following densitometric analysis, EP009 was determined to dose-dependently reduce IL-2-mediated JAK3 tyrosine phosphorylation with a cellular 50% inhibitory concentration (IC50) between 10 and 20 μM (FIG. 2B). […] To globally evaluate specificity, the inhibitory activity of EP009 was measured against a panel of protein kinases distributed throughout the kinome using the scanEDGE profiling service (KINOMEscan). […]

GSK3B = GSK3B (Homo sapiens, UniProt P49841); experiment: Kinase panel: GSK3B; format: biochemical; conditions: 10 μM EP009
Chain of GSK3B (P49841 whole entry): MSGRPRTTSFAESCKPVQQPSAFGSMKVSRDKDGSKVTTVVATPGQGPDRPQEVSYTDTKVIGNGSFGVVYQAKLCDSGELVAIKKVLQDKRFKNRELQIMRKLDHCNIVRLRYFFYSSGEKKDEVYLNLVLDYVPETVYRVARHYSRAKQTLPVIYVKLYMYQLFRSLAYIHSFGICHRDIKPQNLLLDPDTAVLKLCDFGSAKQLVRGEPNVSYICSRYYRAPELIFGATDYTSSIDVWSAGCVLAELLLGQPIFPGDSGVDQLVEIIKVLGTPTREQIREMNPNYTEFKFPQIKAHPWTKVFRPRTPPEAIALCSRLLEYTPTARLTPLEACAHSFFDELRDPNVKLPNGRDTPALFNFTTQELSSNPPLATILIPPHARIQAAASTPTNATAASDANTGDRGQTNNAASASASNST
Description: as §1

panel of protein kinases = experiment: Protein kinase panel profiling (whole panel); format: biochemical; conditions: 10 μM EP009
Description: as §1

p38-alpha = p38-alpha (Homo sapiens, UniProt Q16539); experiment: Kinase panel: p38-alpha; format: biochemical; conditions: 10 μM EP009
Chain of p38-alpha (Q16539 whole entry): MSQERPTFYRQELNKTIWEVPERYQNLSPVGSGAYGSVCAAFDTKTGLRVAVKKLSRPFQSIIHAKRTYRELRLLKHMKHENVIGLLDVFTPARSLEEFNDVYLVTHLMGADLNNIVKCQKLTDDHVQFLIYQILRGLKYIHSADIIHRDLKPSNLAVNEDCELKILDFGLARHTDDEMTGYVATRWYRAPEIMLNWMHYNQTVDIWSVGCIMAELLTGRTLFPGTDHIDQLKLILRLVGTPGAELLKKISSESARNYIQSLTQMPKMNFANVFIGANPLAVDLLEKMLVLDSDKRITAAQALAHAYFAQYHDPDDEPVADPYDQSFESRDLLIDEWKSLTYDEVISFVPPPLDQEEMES
Description: as §1

H2228 = H2228 cell viability (MTS); format: cell-based, human; conditions: 0-10 μM, 72 hours
Description: FIGS. 7A-7C. EP009 reduces ALCL cell viability through induction of caspase 3 mediated apoptosis. (A) SUP-M2, SU-DHL-1 or H2228 cells were cultured with increasing amounts of EP009 (0-10 μM) for 72 hours and cell viability measured with the MTS tetrazolium salt assay. Values represent mean absorbance (OD490-OD650 nm) normalized to vehicle (PBS) treated control cells, while error bars represent the standard deviation (n=3). (B) SU-DHL-1 cells were treated with vehicle (PBS) or increasing amounts of EP009 (0-50 μM) for 24 hours. Cells were then lysed, clarified, and subjected to Luminex multiplex analysis to detect activated caspase 3 and (C) cleaved PARP. Values represent MFI normalized to corresponding GAPDH MFI, while error bars represent the standard deviation (n=2). Representative data from three independent experiments are shown. Statistical significance was determined using Student's t-test. (*, p<0.05).
Cell viability was assessed with 3-(4,5-dimethylthiazol-2-yl)-5-(3-carboxymethoxyphenyl)-2-(4-sulfophenyl)-2H-tetrazolium salt (MTS) reagent (Promega) in triplicates according to the manufacturer's instructions. Three independent experiments were performed. The error bars represent standard deviation.

PDGFRB = PDGFRB (Homo sapiens, UniProt P09619); experiment: Kinase panel: PDGFRB; format: biochemical; conditions: 10 μM EP009
Chain of PDGFRB (P09619 33-1106): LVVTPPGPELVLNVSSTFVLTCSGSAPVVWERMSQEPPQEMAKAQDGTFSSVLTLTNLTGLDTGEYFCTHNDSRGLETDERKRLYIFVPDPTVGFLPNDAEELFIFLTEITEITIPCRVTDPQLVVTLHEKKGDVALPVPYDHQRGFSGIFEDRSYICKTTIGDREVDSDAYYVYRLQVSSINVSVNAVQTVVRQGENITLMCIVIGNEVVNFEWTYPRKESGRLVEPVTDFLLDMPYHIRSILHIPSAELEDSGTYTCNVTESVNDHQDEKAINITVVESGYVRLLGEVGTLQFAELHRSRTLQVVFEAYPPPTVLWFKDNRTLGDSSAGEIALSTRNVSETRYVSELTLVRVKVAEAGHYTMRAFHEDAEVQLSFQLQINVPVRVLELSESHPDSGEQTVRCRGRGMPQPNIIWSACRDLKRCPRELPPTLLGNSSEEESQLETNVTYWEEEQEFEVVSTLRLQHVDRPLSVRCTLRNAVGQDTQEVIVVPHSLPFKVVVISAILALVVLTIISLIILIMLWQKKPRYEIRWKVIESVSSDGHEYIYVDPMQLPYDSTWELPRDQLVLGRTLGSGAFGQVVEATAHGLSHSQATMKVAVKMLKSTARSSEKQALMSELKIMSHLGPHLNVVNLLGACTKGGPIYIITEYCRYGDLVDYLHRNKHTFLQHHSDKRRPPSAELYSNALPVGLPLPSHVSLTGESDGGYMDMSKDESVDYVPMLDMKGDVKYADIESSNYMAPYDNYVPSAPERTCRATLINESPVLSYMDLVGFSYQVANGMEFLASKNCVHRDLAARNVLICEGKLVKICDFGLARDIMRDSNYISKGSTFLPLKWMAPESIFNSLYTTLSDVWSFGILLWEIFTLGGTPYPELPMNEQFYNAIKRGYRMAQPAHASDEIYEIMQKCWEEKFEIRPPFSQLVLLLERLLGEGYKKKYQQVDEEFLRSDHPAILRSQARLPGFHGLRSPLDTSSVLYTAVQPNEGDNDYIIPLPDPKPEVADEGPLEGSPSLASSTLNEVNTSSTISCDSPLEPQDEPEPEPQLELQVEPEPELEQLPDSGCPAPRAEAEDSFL
Description: as §1

ERBB4 = ERBB4 (Homo sapiens, UniProt Q15303); experiment: Kinase panel: ERBB4; format: biochemical; conditions: 10 μM EP009
Chain of ERBB4 (Q15303 26-1308): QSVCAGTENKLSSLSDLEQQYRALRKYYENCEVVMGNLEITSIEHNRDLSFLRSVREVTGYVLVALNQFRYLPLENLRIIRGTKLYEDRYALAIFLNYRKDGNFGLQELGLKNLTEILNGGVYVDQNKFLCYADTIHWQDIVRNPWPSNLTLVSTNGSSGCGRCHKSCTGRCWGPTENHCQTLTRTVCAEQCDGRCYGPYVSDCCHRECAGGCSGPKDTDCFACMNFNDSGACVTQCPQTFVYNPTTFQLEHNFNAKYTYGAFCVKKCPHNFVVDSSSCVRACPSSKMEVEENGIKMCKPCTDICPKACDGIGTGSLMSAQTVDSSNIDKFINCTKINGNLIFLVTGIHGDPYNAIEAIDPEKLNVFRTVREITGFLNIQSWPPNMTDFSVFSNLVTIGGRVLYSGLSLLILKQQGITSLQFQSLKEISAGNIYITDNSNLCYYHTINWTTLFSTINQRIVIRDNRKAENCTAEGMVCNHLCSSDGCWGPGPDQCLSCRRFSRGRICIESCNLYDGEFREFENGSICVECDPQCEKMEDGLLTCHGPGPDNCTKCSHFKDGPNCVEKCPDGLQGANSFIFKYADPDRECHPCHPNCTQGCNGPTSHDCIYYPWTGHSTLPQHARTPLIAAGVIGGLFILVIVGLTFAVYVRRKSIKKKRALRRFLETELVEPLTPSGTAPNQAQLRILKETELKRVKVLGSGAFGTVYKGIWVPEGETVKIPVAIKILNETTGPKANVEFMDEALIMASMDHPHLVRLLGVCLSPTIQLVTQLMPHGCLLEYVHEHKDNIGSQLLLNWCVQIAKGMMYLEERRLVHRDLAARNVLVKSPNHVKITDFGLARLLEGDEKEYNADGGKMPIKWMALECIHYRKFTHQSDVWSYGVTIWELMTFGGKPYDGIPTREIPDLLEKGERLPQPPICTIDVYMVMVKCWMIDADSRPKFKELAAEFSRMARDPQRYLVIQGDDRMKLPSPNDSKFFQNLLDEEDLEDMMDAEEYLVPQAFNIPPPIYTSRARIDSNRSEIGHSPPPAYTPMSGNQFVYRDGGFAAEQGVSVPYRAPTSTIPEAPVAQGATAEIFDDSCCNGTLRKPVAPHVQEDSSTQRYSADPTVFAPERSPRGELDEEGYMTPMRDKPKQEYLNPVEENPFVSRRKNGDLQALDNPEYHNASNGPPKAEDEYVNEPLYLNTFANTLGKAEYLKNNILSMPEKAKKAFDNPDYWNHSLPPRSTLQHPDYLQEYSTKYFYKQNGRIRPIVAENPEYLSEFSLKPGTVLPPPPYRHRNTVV
Description: as §1

BTK = BTK (Homo sapiens, UniProt Q06187); experiment: Kinase panel: BTK; format: biochemical; conditions: 10 μM EP009
Chain of BTK (Q06187 whole entry): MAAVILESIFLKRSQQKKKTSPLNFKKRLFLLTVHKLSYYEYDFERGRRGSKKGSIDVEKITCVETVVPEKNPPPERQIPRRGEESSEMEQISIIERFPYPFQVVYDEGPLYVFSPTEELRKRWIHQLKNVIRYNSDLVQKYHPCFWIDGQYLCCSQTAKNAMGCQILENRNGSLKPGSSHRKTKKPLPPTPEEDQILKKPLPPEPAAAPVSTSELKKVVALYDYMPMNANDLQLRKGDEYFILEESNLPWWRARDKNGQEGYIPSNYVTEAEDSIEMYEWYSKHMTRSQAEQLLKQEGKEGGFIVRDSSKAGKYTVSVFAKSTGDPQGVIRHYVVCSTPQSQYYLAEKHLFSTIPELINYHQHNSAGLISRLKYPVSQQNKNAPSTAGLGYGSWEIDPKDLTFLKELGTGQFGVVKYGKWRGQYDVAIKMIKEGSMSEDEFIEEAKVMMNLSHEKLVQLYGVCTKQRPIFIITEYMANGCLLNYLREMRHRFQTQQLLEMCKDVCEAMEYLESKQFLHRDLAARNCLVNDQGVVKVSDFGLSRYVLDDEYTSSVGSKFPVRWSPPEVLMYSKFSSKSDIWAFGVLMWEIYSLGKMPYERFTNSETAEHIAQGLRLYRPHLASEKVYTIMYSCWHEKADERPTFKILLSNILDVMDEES
Description: as §1

HEPG2 = HEPG2 cell viability (MTS); format: cell-based, human; conditions: 72 hours, concentrations giving complete loss of JAK3-dependent cell viability (0-10 μM)
Description: FIGS. 2A-2F. Selective inhibition of JAK3 by EP009 results in loss of JAK3-dependent tumor cell line viability with no detectable off-target effects in key cell types. (A) Chemical structure of EP009 (M.W. 224.34). (B) Kit225 or (C) BaF/3 cells cultured in the presence of IL-2 or IL-3, respectively, were treated with vehicle (PBS; lane a) or increasing amounts of EP009 (0-50 μM; lanes b-h) for 12 hours. Cells were then lysed, clarified, and immunoprecipitated (IP) with anti-JAK3 (α-JAK3) or anti-JAK2 (α-JAK2), and subjected to Western blot (WB) analysis with anti-phosphotyrosine (α-pY). Blots were stripped and reprobed with corresponding antibody to verify equivalent protein loading. […] (E) Kit225 or BaF/3 cells were cultured with increasing amounts of EP009 (0-10 μM) for 72 hours and cell viability measured with the MTS tetrazolium salt assay. Values represent mean absorbance (OD490-OD650 nm) normalized to vehicle (PBS) treated control cells, while error bars represent the standard deviation (n=3). (F) HEK293, HEPG2, or naïve primary human PBMCs were cultured with increasing amounts of EP009 (0-10 μM) for 72 hours and cell viability measured with the MTS tetrazolium salt assay. Values represent mean absorbance (OD490-OD650 nm) normalized to vehicle (PBS) treated control cells, while error bars represent the standard deviation (n=3). […]

AKT1 = AKT1 (Homo sapiens, UniProt P31749); experiment: Kinase panel: AKT1; format: biochemical; conditions: 10 μM EP009
Chain of AKT1 (P31749 whole entry): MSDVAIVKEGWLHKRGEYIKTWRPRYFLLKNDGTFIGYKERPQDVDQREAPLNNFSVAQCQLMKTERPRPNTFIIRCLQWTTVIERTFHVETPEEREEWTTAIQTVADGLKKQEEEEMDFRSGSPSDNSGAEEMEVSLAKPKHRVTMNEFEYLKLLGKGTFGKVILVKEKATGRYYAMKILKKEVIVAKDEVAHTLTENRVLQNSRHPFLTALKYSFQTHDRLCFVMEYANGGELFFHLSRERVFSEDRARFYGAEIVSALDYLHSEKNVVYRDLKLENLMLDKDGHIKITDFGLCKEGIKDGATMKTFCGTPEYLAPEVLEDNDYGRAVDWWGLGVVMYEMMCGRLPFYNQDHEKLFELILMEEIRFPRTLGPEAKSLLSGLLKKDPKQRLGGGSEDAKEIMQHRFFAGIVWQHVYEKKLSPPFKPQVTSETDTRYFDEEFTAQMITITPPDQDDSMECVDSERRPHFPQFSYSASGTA
Description: as §1

Chain of IKK-beta (O14920 whole entry): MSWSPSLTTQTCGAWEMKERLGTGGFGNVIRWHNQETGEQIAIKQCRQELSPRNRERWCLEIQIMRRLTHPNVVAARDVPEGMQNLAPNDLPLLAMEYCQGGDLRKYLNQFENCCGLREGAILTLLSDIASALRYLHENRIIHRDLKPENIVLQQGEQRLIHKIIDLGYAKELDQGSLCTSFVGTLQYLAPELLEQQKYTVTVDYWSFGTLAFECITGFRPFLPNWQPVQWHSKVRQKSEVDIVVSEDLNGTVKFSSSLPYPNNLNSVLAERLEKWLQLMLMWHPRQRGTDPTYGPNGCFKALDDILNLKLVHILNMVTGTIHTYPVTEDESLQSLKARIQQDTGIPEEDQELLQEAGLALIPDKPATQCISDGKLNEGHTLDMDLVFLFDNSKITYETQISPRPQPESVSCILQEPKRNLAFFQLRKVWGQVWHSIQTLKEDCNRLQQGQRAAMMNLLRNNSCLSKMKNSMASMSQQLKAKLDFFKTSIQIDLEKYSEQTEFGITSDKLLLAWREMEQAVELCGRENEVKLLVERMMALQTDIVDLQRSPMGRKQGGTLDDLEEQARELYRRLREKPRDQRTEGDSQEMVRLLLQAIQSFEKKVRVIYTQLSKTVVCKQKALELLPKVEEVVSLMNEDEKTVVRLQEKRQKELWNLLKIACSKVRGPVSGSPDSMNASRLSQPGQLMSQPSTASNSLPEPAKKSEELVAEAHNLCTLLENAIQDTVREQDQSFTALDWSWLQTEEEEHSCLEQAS

Structure (SMILES): C=C1CCCCCCCCCC(CO)C1=O (stereo not shown) [EP009, 2-(Hydroxymethyl)-12-methylenecyclododecanone]
- Kinase Activity (% of Control) (IKK-beta): 73 % of Control
- Kinase Activity (% of Control) (GSK3B): 100 % of Control
- inhibition against the kinases tested (panel of protein kinases): < 50%
- Kinase Activity (% of Control) (p38-alpha): 100 % of Control
- effect on H2228 cell viability (H2228): no effect
- Kinase Activity (% of Control) (PDGFRB): 100 % of Control
- Kinase Activity (% of Control) (ERBB4): 91 % of Control
- Kinase Activity (% of Control) (BTK): 91 % of Control
- effect on HEPG2 cell viability (HEPG2): no detectable loss of cell viability
- Kinase Activity (% of Control) (AKT1): 100 % of Control

Source: patent publication US9371265B2, “Compositions and methods related to inhibitors of JAK kinase” (EP PHARMA, INC., priority 2012, dated 2016)
